According to US20260325533A1, “CDK INHIBITOR COMPOUNDS” (ALEKSIA THERAPEUTICS, INC., priority 2023, published 2026):
Where two headings read alike, the source gives them in different places.

Assays:
Type in all cases: biochemical
[1] = target: CDK2/CCNE1 (Homo sapiens, UniProt P24941); assay: CDK2 homogeneous time-resolved fluorescence (HTRF) kinase assay; details: CDK2/CCNE
Summary of the method: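 CDK2/CCNE1 (3 nM) preincubated 20 min at 23 °C with compound, then reacted 60 min at 23 °C with 1 mM ATP and 50 nM ULight-4E-BP1 (Thr37/46) peptide. Stopped with EDTA, phospho-peptide detected by Eu-anti-phospho antibody (665 nm or 665/615 ratio). IC50 from 11-point half-log titrations typically starting at 10 μM.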

[2] = target: CDK1/CCNB1 (Homo sapiens, UniProt P06493); assay: CDK1 homogeneous time-resolved fluorescence (HTRF) kinase assay; details: CDK1/CCNB
Chain of CDK1/CCNB1 (P06493 whole entry): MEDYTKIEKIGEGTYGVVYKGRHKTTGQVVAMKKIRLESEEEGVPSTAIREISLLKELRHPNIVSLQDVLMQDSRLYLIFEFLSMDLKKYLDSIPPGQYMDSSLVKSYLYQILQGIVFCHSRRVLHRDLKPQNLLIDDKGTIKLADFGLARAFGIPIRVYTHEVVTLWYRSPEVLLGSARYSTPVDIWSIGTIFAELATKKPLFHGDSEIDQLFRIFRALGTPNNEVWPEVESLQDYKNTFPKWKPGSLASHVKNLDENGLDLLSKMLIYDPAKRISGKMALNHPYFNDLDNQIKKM
Chain of CDK1/CCNB1 (P14635 whole entry partner): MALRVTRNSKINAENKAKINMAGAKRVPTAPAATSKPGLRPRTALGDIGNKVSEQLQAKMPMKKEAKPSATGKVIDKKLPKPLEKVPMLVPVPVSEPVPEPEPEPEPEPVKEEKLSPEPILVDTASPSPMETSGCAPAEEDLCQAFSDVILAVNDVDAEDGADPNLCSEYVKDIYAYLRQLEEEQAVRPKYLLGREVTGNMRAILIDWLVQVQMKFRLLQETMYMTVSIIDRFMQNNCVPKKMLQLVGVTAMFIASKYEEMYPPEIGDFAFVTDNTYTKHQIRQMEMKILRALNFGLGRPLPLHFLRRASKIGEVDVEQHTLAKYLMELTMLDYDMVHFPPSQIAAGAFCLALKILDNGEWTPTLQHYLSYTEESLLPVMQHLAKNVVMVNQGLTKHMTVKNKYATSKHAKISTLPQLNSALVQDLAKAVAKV
Summary of the method: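 Compounds, titrated 11 points in half-log steps typically from 10 μM, were incubated with enzyme for 20 min before ATP (1 mM) and ULight-labelled eIF4E-binding protein 1 peptide (50 nM) started a 60-min reaction at 23 °C. Phosphopeptide was detected by europium-antibody TR-FRET and IC50 values were derived.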

[3] = target: CDK4/CCND3 (Homo sapiens, UniProt P11802); assay: CDK4 homogeneous time-resolved fluorescence (HTRF) kinase assay; details: CDK4/CCND
Chain of CDK4/CCND3 (P11802 whole entry): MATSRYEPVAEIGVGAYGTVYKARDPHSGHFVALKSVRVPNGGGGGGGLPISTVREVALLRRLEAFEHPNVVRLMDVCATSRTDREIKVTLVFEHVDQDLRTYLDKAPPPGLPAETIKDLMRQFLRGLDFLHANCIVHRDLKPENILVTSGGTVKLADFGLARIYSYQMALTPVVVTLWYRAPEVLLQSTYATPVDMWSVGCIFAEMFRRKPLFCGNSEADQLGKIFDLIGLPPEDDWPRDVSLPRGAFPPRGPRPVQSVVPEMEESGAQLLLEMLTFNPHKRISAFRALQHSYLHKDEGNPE
Chain of CDK4/CCND3 (P30281 whole entry partner): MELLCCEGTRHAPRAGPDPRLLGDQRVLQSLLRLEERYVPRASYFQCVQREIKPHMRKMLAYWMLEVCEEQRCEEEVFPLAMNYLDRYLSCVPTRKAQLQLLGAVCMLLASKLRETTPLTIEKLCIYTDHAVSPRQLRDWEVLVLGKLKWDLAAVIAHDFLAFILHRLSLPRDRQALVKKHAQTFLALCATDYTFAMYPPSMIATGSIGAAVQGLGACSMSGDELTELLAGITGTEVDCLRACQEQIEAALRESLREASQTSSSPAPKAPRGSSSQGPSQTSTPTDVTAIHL
Summary of the method: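 Compounds were preincubated with 1.5 nM CDK4/CCND3 for 20 min at 23 °C in HEPES buffer (pH not given), then reacted 60 min with 1 mM ATP and 50 nM ULight-4E-BP1 (Thr37/46) peptide. EDTA stop, Eu-anti-phospho-4E-BP1 detection; 665/615 nm ratio; IC50 from 11-point half-log titrations from 10 μM.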

[4] = target: CDK6/CCND1 (Homo sapiens, UniProt Q00534); assay: CDK6 homogeneous time-resolved fluorescence (HTRF) kinase assay; details: CDK6/CCND
Chain of CDK6/CCND1 (Q00534 whole entry): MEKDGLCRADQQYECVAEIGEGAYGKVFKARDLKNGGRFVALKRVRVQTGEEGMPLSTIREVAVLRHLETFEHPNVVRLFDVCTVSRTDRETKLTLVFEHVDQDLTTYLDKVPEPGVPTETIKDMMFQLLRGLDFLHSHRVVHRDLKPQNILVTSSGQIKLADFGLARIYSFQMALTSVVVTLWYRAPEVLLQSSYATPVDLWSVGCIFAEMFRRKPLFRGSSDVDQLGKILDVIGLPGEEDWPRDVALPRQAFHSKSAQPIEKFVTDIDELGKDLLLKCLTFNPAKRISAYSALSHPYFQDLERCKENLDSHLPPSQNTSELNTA
Chain of CDK6/CCND1 (P24385 whole entry partner): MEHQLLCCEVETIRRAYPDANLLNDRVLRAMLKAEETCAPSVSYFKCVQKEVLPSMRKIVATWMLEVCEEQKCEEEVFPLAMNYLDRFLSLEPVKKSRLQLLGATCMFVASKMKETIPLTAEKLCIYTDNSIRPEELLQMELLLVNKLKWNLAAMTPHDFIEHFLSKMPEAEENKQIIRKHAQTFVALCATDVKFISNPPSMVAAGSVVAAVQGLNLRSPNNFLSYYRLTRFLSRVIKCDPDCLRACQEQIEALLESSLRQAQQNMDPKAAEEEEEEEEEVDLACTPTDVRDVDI
Summary of the method: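 1 nM enzyme, 1 mM ATP, 50 nM ULight-4E-BP1 (Thr37/46) peptide, 1% DMSO; 20 min compound preincubation, 60 min reaction, 23 °C. EDTA stop, 2 nM Eu-anti-phospho-4E-BP1 antibody 60 min. TR-FRET 665 nm (or 665/615 ratio); IC50 from 11-point half-log titration, top 10 μM.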

[5] = 25-250 nM, read-out: CDK2/CCNE IC50, 25-250 nM
[6] = >250 nM, read-out: CDK1/CCNB IC50 >250 nM
[7] = >250 nM, read-out: CDK4/CCND IC50, >250 nM
[8] = >250 nM, 1 mM ATP, read-out: CDK6/CCND IC50, >250 nM
[9] = x = IC50 <25 nM, read-out: CDK2/CCNE IC50 (<25 nM)
[10] = x = IC50 >250 nM, read-out: CDK1/CCNB IC50 (>250 nM column)
[11] = x = IC50 >250 nM, read-out: CDK4/CCND IC50 (>250 nM column)
[12] = x = IC50 >250 nM, read-out: CDK6/CCND IC50 (>250 nM column)
[13] = x = IC50 25-250 nM, read-out: CDK2/CCNE IC50 (25-250 nM)
[14] = 25-250 nM marked x, read-out: CDK2/CCNE IC50 25-250 nM
[15] = >250 nM marked x, read-out: CDK1/CCNB IC50 >250 nM
[16] = 25-250 nM marked x, read-out: CDK4/CCND IC50 25-250 nM
[17] = 25-250 nM marked x, read-out: CDK6/CCND IC50 25-250 nM

Row | SMILES | IC50 [2, 10] | IC50 [3, 11] | IC50 [4, 12] | IC50 [1, 13] | further results
1 | Cn1cc(Nc2cc3c(C#Cc4ccc(C#N)cc4)nccc3cn2)cn1 [Ex 943, 4-((7-((1-methyl-1H-pyrazol-4-yl)amino)-2,6-naphthyridin-1-yl)ethynyl)benzonitrile] |  |  |  |  | IC50 [1, 5]: 25 to 250 nM; IC50 [2, 6]: > 250 nM; IC50 [3, 7]: > 250 nM; IC50 [4, 8]: > 250 nM
2 | CCC1(CC)C(=O)Nc2cc(C#Cc3nccc4cnc(Nc5ccc(S(=O)(=O)C(C)C)cc5C)cc34)ccc21 [Ex 369, 3,3-diethyl-6-((7-((4-(isopropylsulfonyl)-2-methylphenyl)amino)-2,6-naphthyridin-1-yl)ethynyl)indolin-2-one] | > 250 nM | > 250 nM | > 250 nM |  | IC50 [1, 9]: < 25 nM
3 | Cc1cc(S(C)(=O)=O)ccc1Nc1cc2c(C#Cc3ccc4c(c3)NC(=O)C43CCC3)nccc2cn1 [Ex 381, 6'-((7-((2-methyl-4-(methylsulfonyl)phenyl)amino)-2,6-naphthyridin-1-yl)ethynyl)spiro[cyclobutane-1,3'-indolin]-2'-one] | > 250 nM | > 250 nM | > 250 nM |  | IC50 [1, 9]: < 25 nM
4 | CC(=O)NS(=O)(=O)c1ccc(Nc2cc3c(-c4ccc5c(cnn5CC(O)(C(F)(F)F)C(F)(F)F)c4C)nccc3cn2)cc1 [Example 678, N-((4-((5-(4-methyl-1-(3,3,3-trifluoro-2-hydroxy-2-(trifluoromethyl)propyl)-1H-indazol-5-yl)-2,6-naphthyridin-3-yl)amino)phenyl)sulfonyl)acetamide] | > 250 nM | > 250 nM | > 250 nM | 25 to 250 nM | 
5 | Cc1ccc(NS(=O)(=O)c2ccc(Nc3cc4c(-c5ccc6c(cnn6CC(O)(C(F)(F)F)C(F)(F)F)c5C)nccc4cn3)cc2)cc1C(C)(C)O [Example 708, N-(3-(2-hydroxypropan-2-yl)-4-methylphenyl)-4-((5-(4-methyl-1-(3,3,3-trifluoro-2-hydroxy-2-(trifluoromethyl)propyl)-1H-indazol-5-yl)-2,6-naphthyridin-3-yl)amino)benzenesulfonamide] |  |  |  |  | IC50 [1, 5]: 25 to 250 nM; IC50 [2, 6]: > 250 nM; IC50 [3, 7]: > 250 nM; IC50 [4, 8]: > 250 nM
6 | CC1(C)C(=O)Nc2cc(C#Cc3nccc4cnc(Nc5ccc(S(C)(=O)=O)cc5O)cc34)ccc21 [Ex 380, 6-((7-((2-hydroxy-4-(methylsulfonyl)phenyl)amino)-2,6-naphthyridin-1-yl)ethynyl)-3,3-dimethylindolin-2-one] | > 250 nM | > 250 nM | > 250 nM |  | IC50 [1, 9]: < 25 nM
7 | Cc1c(-c2nccc3cnc(Nc4ccc(NS(=O)(=O)c5ccc(N6CCOCC6)nc5)cc4)cc23)ccc2c1cnn2CC(C)(C)O [Ex 780, N-(4-((5-(1-(2-hydroxy-2-methylpropyl)-4-methyl-1H-indazol-5-yl)-2,6-naphthyridin-3-yl)amino)phenyl)-6-morpholinopyridine-3-sulfonamide] |  |  |  |  | IC50 [1, 5]: 25 to 250 nM; IC50 [2, 6]: > 250 nM; IC50 [3, 7]: > 250 nM; IC50 [4, 8]: > 250 nM
8 | CC(=O)N[C@H]1CC[C@H](C#Cc2nccc3cnc(Nc4ccc(S(C)(=O)=O)cc4)cc23)CC1 [Ex 246, N-((1r,4r)-4-((7-((4-(methylsulfonyl)phenyl)amino)-2,6-naphthyridin-1-yl)ethynyl)cyclohexyl)acetamide] |  |  |  |  | IC50 [1, 14]: 25 to 250 nM; IC50 [2, 15]: > 250 nM; IC50 [3, 16]: 25 to 250 nM; IC50 [4, 17]: 25 to 250 nM
9 | Cc1cc2[nH]ncc2cc1-c1nccc2cnc(Nc3ccc(S(=O)(=O)CCO)cc3)cc12 [Ex 222, 2-((4-((5-(6-methyl-1H-indazol-5-yl)-2,6-naphthyridin-3-yl)amino)phenyl)sulfonyl)ethan-1-ol] |  |  |  |  | IC50 [1, 14]: 25 to 250 nM; IC50 [2, 15]: > 250 nM; IC50 ([3]; >250 nM marked x, read-out: CDK4/CCND IC50 >250 nM): > 250 nM; IC50 ([4]; >250 nM marked x, read-out: CDK6/CCND IC50 >250 nM): > 250 nM
10 | CN(c1nccc2cnc(NC3CCN(S(C)(=O)=O)CC3)cc12)C1CC1 [Ex 46, N1-cyclopropyl-N1-methyl-N7-(1-(methylsulfonyl)piperidin-4-yl)-2,6-naphthyridine-1,7-diamine] |  |  |  |  | IC50 [1, 14]: 25 to 250 nM; IC50 [2, 15]: > 250 nM; IC50 [3, 16]: 25 to 250 nM; IC50 [4, 17]: 25 to 250 nM
11 | CC(=O)Nc1cc(Nc2cc3c(-c4ccc5c(cnn5CCO)c4C)nccc3cn2)ccc1S(C)(=O)=O [Example 593, N-(5-((5-(1-(2-hydroxyethyl)-4-methyl-1H-indazol-5-yl)-2,6-naphthyridin-3-yl)amino)-2-(methylsulfonyl)phenyl)acetamide] | > 250 nM | > 250 nM | > 250 nM | 25 to 250 nM | 
12 | COc1cccc(NS(=O)(=O)c2ccc(Nc3cc4c(-c5ccc6c(cnn6CC(C)(C)O)c5C)nccc4cn3)cc2)c1 [Ex 804, 4-((5-(1-(2-hydroxy-2-methylpropyl)-4-methyl-1H-indazol-5-yl)-2,6-naphthyridin-3-yl)amino)-N-(3-methoxyphenyl)benzenesulfonamide] |  |  |  |  | IC50 ([1]; <25 nM, read-out: CDK2/CCNE IC50, <25 nM): < 25 nM; IC50 [2, 6]: > 250 nM; IC50 [3, 7]: > 250 nM; IC50 [4, 8]: > 250 nM
13 | Cn1cc(NS(=O)(=O)c2ccc(Nc3cc4c(C#Cc5cccnc5N)nccc4cn3)cc2)cn1 [Ex 450, 4-((5-((2-aminopyridin-3-yl)ethynyl)-2,6-naphthyridin-3-yl)amino)-N-(1-methyl-1H-pyrazol-4-yl)benzenesulfonamide] | > 250 nM | > 250 nM | > 250 nM | 25 to 250 nM | 
14 | CS(=O)(=O)N1CCC(Nc2cc3c(N4CCNC(=O)C4)nccc3cn2)CC1 [Ex 48, 4-(7-((1-(methylsulfonyl)piperidin-4-yl)amino)-2,6-naphthyridin-1-yl)piperazin-2-one] |  |  |  |  | IC50 [1, 14]: 25 to 250 nM; IC50 [2, 15]: > 250 nM; IC50 ([3]; <25 nM, read-out: CDK4/CCND IC50 <25 nM): < 25 nM; IC50 ([4]; <25 nM, read-out: CDK6/CCND IC50 <25 nM): < 25 nM

The next lines start with results.

Row | IC50 [2, 10] | IC50 [3, 11] | IC50 [4, 12] | IC50 [1, 13] | SMILES | further results
15 | > 250 nM | > 250 nM | > 250 nM | 25 to 250 nM | CS(=O)(=O)c1ccc(Nc2cc3c(C#Cc4ccnc5[nH]ncc45)nccc3cn2)cc1 [Ex 548, 5-((1H-pyrazolo[3,4-b]pyridin-4-yl)ethynyl)-N-(4-(methylsulfonyl)phenyl)-2,6-naphthyridin-3-amine] | 
16 | > 250 nM | > 250 nM | > 250 nM | 25 to 250 nM | CC(=O)Nc1ncc(C#Cc2nccc3cnc(Nc4ccc(S(C)(=O)=O)cc4)cc23)s1 [Ex 505, N-(5-((7-((4-(methylsulfonyl)phenyl)amino)-2,6-naphthyridin-1-yl)ethynyl)thiazol-2-yl)acetamide] | 
17 | > 250 nM | > 250 nM | > 250 nM | 25 to 250 nM | CS(=O)(=O)c1ccc(Nc2cc3c(C#Cc4cncc5[nH]ncc45)nccc3cn2)cc1 [Ex 611, 5-((1H-pyrazolo[3,4-c]pyridin-4-yl)ethynyl)-N-(4-(methylsulfonyl)phenyl)-2,6-naphthyridin-3-amine] | 
18 | > 250 nM | > 250 nM | > 250 nM | 25 to 250 nM | CS(=N)(=O)c1ccc(Nc2cc3c(C#Cc4cccnc4N)nccc3cn2)cc1 (centres unmarked) [Example 490, (4-((5-((2-aminopyridin-3-yl)ethynyl)-2,6-naphthyridin-3-yl)amino)phenyl)(imino)(methyl)-λ^6-sulfanone] | 
19 | > 250 nM | > 250 nM | > 250 nM | 25 to 250 nM | COc1ccc(C#Cc2nccc3cnc(Nc4ccc(S(C)(=O)=O)cc4)cc23)cc1F [Ex 499, 5-((3-fluoro-4-methoxyphenyl)ethynyl)-N-(4-(methylsulfonyl)phenyl)-2,6-naphthyridin-3-amine] | 
20 | > 250 nM | > 250 nM | > 250 nM | 25 to 250 nM | CS(=O)(=O)c1ccc(Nc2cc3c(C#Cc4cnc5ccc(Cl)nn45)nccc3cn2)cc1 [Ex 578, 5-((6-chloroimidazo[1,2-b]pyridazin-3-yl)ethynyl)-N-(4-(methylsulfonyl)phenyl)-2,6-naphthyridin-3-amine] | 
